These results are taken from US12653827B2, “Methods of treating indolent systemic mastocytosis” (Telios Pharma Inc., priority 2024, dated 2026).

Where two headings read alike, the source gives them in different places.

One assay concerns basophils. The assay is described as follows: Basophil Activation Test (BAT), CD63, anti-FcεR stimulated blood from healthy donors. The assay is classed as cell-based, human. Conditions: for EC50: Homo sapiens. As to the method: The BAT was conducted as set forth in Santos (2021) Allergy, 76:2420-2432. Blood from six healthy donors was drawn and Compound 128 was added at various concentrations (10 μM, 3.16 μM, 1 μM, 0.3 μM, 0.1 μM, 0.03 μM, or 0 μM). Blood samples were gently rocked at room temperature for 2 hours, 24 hours, or 48 hours. The BAT assay using the Flow Cast Basophil Activation Kit (Buhlmann Diagnostics; Catalog #B-CCR-STCON) was then conducted following manufacturer instructions by (1) stimulating the blood with anti-FcεR stimulation control in stimulation buffer with IL-3 and staining cells for CCR3 and CD63 for 15 minutes at 37° C., (2) lysing red blood cells and fixing cells with Lysing Reagent at room temperature for 10 minutes, (3) washing cells with Wash Buffer, and (4) acquiring data on a flow cytometer. Activated basophils were defined as CCR3+, low side scatter and CD63+. Percent of activated basophils was calculated as number of activated basophils over the total number of basophils. A four-parameter logistic regression was applied to determine the EC50 and EC90.

Another assay relates to mast cells. The assay is described as follows: Degranulation of mast cells grown from CD34+ blood cells of ISM patients (FIG. 22). Conditions: absence of SCF at the time of stimulation. The assay is classed as cell-based.
Assay [1] deals with human mast cells. Description: Antigen-induced degranulation (CD63 and histamine) in ISM-like human mast cells. The format is cell-based. To be noted: six healthy donors, treated two hours. As to the method: (§1) Human mast cells were derived from bone marrow CD34+ cells from six healthy donors for up to eight weeks by culturing CD34+ cells in StemSpan SFEM II (Stem Cell Technologies) supplemented with stem cell factor (SCF; 100 ng/mL; R&D System), IL-6 (R&D Systems), IL-3 (R&D Systems) and 1% penicillin/streptomycin (P/S; Gibco) for the first 10 days and in StemSpan SFEM II supplemented with SCF and IL-6 and 1% P/S for the remaining time in culture. […] Supernatant was collected and histamine levels were measured using a Histamine ELISA kit (Eagle Biosciences). […] Percent of activated mast cells was calculated as number of activated mast cells over the total number of mast cells.
(§2) Human mast cells were differentiated from bone marrow CD34+ cells from six healthy donors, cultured and sensitized as set forth in Example 4. […] The median fluorescence intensity of phosphorylated BTK was measured. CD63 and histamine levels in these cells were measured and percent activated mast cells were calculated as set forth in Example 4. The percent of stimulated control for pBTK, activated mast cells (CD63+) and histamine levels was calculated. […]

Assay [2] deals with human mast cells. Description: ISM-like mast cell chemotaxis towards conditioned media (Transwell). The assay is classed as cell-based. To be noted: ISM-like conditions, four healthy donors, treated two hours. As to the method: Human mast cells were differentiated from bone marrow CD34+ cells from four healthy donors as set forth in Example 4. Cells were used to produce conditioned media in ISM-like conditions. Conditioned media was the supernatant collected from mast cells cultured with stem cell factor (100 ng/mL), sensitized with NP-IgE (0.1 μg/mL) for 18 hours, treated with Compound 128 for two hours, and stimulated with NP-BSA (antigen; 0.1 μg/mL) for four hours. Migration of mast cells in the top chamber on Transwell […] inserts (Corning) towards the antigen-stimulated conditioned media in the bottom chamber was quantified after four hours using the CellTiter-Glo™ Luminescent Cell Viability Assay Kit (Promega). The amount of luminescence is correlated with live cell numbers. Fold change over the non-activated control was calculated.

For another assay, the target named is BTK (Homo sapiens, UniProt Q06187). Description: pBTK test in ISM-like (+SCF) human mast cells. Conditions: six healthy donors, treated two hours. The format is cell-based. Further details: endogenous in cells; host or cells: Primary human mast cells differentiated from bone marrow CD34+ cells of healthy donors, cultured with SCF. As to the method: as §1, §2
BTK, sequence (Q06187 whole entry): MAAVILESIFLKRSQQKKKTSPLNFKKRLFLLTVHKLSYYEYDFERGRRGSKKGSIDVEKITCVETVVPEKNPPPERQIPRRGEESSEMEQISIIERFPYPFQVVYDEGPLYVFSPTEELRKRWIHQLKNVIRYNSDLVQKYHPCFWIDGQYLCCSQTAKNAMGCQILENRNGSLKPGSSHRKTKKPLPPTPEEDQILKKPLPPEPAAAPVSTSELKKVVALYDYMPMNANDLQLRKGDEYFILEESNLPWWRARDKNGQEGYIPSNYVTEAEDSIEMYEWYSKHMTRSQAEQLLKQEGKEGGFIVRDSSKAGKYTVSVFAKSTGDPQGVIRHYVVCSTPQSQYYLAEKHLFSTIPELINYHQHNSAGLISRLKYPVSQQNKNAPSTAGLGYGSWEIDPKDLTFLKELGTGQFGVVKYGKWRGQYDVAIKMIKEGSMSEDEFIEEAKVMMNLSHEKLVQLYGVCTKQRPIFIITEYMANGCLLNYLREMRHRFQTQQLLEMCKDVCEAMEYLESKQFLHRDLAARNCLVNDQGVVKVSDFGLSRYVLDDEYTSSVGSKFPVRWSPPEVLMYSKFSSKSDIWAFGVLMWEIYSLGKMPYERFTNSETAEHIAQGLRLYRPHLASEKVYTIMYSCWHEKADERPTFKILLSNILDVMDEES

Take `C=CC(=O)N1CCC(F)(CNc2ncnc(N)c2-c2ccc(Oc3ccccc3)cc2)CC1` [Compound 128, 1-(4-(((6-amino-5-(4-phenoxyphenyl)pyrimidin-4-yl)amino)methyl)-4-fluoropiperidin-1-yl)prop-2-en-1-one]: the EC50 in the assay on basophils (2-hour drug exposure, blood from six healthy donors, read-out: average EC50, inhibition of anti-FcεR induced basophil activation (CD63+)) worked out at 500 nM; with basophils (24-hour drug exposure, blood from six healthy donors, read-out: average EC50, inhibition of anti-FcεR induced basophil activation (CD63+)), 120 nM; in the assay with basophils (48-hour drug exposure, blood from six healthy donors, read-out: average EC50, inhibition of anti-FcεR induced basophil activation (CD63+)), 100 nM; in the assay with basophils (24 hours exposure, Example 2, read-out: average EC50 (n=4), CD63 normalized to DMSO control in CCR3+ basophils), 120 nM. In the assay with basophils (after 24 hours drug exposure), the “potency increase of basophil activation inhibition” value is “approximately 4 fold”. Besides, the “degranulation of ISM patient-derived mast cells” value in the assay on mast cells is on record as “inhibited”. Further, the “inhibition of IgE-mediated degranulation (CD63 and histamine)” value in the assay with human mast cells [1] is “potently inhibits”. The “chemoattractant activity of mast cells (chemotaxis towards conditioned media)” value with human mast cells [2] is listed as “inhibited”. The “inhibition of IgE-mediated BTK phosphorylation” value at BTK is reported as “potently inhibits”.

By EC50 is commonly meant the concentration needed to bring the measured effect to its halfway point.
